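Five compound concentrations were applied to cells in 96-well plates for 48 hours; endpoints were derived by simple linear interpolation of the resulting dose-response curve. TGI: total growth inhibition.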
How the values were obtained:
Assay in all cases: NCI anticancer screen, dose series, 48 h
RPMI-8226 leukemia = tested on: RPMI-8226 leukemia
SK-MEL-28 melanoma = tested on: SK-MEL-28 melanoma
CAKI-1 renal = tested on: CAKI-1 renal
U251 CNS = tested on: U251 CNS
UO-31 renal = tested on: UO-31 renal
NCI-H226 lung = tested on: NCI-H226 lung
HCC-2998 colon = tested on: HCC-2998 colon
TK-10 renal = tested on: TK-10 renal
UACC-257 melanoma = tested on: UACC-257 melanoma
OVCAR-3 ovarian = tested on: OVCAR-3 ovarian
SK-MEL-5 melanoma = tested on: SK-MEL-5 melanoma
SK-MEL-2 melanoma = tested on: SK-MEL-2 melanoma
786-0 renal = tested on: 786-0 renal
SF-295 CNS = tested on: SF-295 CNS
SF-539 CNS = tested on: SF-539 CNS
SF-268 CNS = tested on: SF-268 CNS
HOP-62 NSCLC = tested on: HOP-62 NSCLC
PC-3 prostate = tested on: PC-3 prostate
NCI-H522 lung = tested on: NCI-H522 lung
MDA-N = tested on: MDA-N
SW-620 colon = tested on: SW-620 colon
HS 578T breast = tested on: HS 578T breast
K-562 leukemia = tested on: K-562 leukemia
HOP-92 NSCLC = tested on: HOP-92 NSCLC
A498 renal = tested on: A498 renal
ACHN renal = tested on: ACHN renal
NCI-H460 lung = tested on: NCI-H460 lung
MDA-MB-231 breast = tested on: MDA-MB-231 breast
SN12C renal = tested on: SN12C renal
EKVX NSCLC = tested on: EKVX NSCLC
COLO 205 colon = tested on: COLO 205 colon
MCF7 breast = tested on: MCF7 breast
HCT-116 colon = tested on: HCT-116 colon
IGROV1 ovarian = tested on: IGROV1 ovarian
SK-OV-3 ovarian = tested on: SK-OV-3 ovarian
MOLT-4 leukemia = tested on: MOLT-4 leukemia
OVCAR-5 ovarian = tested on: OVCAR-5 ovarian
T-47D breast = tested on: T-47D breast
BT-549 breast = tested on: BT-549 breast
A549 NSCLC = tested on: A549 NSCLC
OVCAR-8 ovarian = tested on: OVCAR-8 ovarian
OVCAR-4 ovarian = tested on: OVCAR-4 ovarian
HCT-15 colon = tested on: HCT-15 colon
MDA-MB-435 = tested on: MDA-MB-435
SNB-19 CNS = tested on: SNB-19 CNS
RXF 393 renal = tested on: RXF 393 renal
HT29 colon = tested on: HT29 colon
NCI-H23 lung = tested on: NCI-H23 lung
LOX IMVI melanoma = tested on: LOX IMVI melanoma
UACC-62 melanoma = tested on: UACC-62 melanoma
SNB-75 CNS = tested on: SNB-75 CNS
M14 melanoma = tested on: M14 melanoma
DU-145 prostate = tested on: DU-145 prostate
SR leukemia = tested on: SR leukemia
CCRF-CEM leukemia = tested on: CCRF-CEM leukemia
MALME-3M melanoma = tested on: MALME-3M melanoma
HL-60(TB) leukemia = tested on: HL-60(TB) leukemia
NCI/ADR-RES ovarian = tested on: NCI/ADR-RES ovarian
KM12 colon = tested on: KM12 colon

SMILES: OC1CSCCCSCCSCCCSC1
- TGI (RPMI-8226 leukemia): > 100 µM
- TGI (SK-MEL-28 melanoma): > 100 µM
- TGI (CAKI-1 renal): > 100 µM
- TGI (U251 CNS): > 100 µM
- TGI (UO-31 renal): > 100 µM
- TGI (NCI-H226 lung): > 100 µM
- TGI (HCC-2998 colon): > 100 µM
- TGI (TK-10 renal): > 100 µM
- TGI (UACC-257 melanoma): > 100 µM
- TGI (OVCAR-3 ovarian): > 100 µM
- TGI (SK-MEL-5 melanoma): > 100 µM
- TGI (SK-MEL-2 melanoma): > 100 µM
- TGI (786-0 renal): > 100 µM
- TGI (SF-295 CNS): > 100 µM
- TGI (SF-539 CNS): > 100 µM
- TGI (SF-268 CNS): > 100 µM
- TGI (HOP-62 NSCLC): > 100 µM
- TGI (PC-3 prostate): > 100 µM
- TGI (NCI-H522 lung): > 100 µM
- TGI (MDA-N): > 100 µM
- TGI (SW-620 colon): > 100 µM
- TGI (HS 578T breast): > 100 µM
- TGI (K-562 leukemia): > 100 µM
- TGI (HOP-92 NSCLC): > 100 µM
- TGI (A498 renal): > 100 µM
- TGI (ACHN renal): > 100 µM
- TGI (NCI-H460 lung): > 100 µM
- TGI (MDA-MB-231 breast): > 100 µM
- TGI (SN12C renal): > 100 µM
- TGI (EKVX NSCLC): > 100 µM
- TGI (COLO 205 colon): > 100 µM
- TGI (MCF7 breast): > 100 µM
- TGI (HCT-116 colon): > 100 µM
- TGI (IGROV1 ovarian): > 100 µM
- TGI (SK-OV-3 ovarian): > 100 µM
- TGI (MOLT-4 leukemia): > 100 µM
- TGI (OVCAR-5 ovarian): > 100 µM
- TGI (T-47D breast): > 100 µM
- TGI (BT-549 breast): > 100 µM
- TGI (A549 NSCLC): > 100 µM
- TGI (OVCAR-8 ovarian): > 100 µM
- TGI (OVCAR-4 ovarian): > 100 µM
- TGI (HCT-15 colon): > 100 µM
- TGI (MDA-MB-435): > 100 µM
- TGI (SNB-19 CNS): > 100 µM
- TGI (RXF 393 renal): > 100 µM
- TGI (HT29 colon): > 100 µM
- TGI (NCI-H23 lung): > 100 µM
- TGI (LOX IMVI melanoma): > 100 µM
- TGI (UACC-62 melanoma): > 100 µM
- TGI (SNB-75 CNS): > 100 µM
- TGI (M14 melanoma): > 100 µM
- TGI (DU-145 prostate): > 100 µM

SMILES: CN(C)/N=C1\C=C2CC[C@H](O[Si](C)(C)C(C)(C)C)[C@@]2(C)CC1
- TGI (RPMI-8226 leukemia): 22 µM
- TGI (SR leukemia): 40.9 µM
- TGI (SK-MEL-28 melanoma): 29.5 µM
- TGI (CCRF-CEM leukemia): 44 µM
- TGI (CAKI-1 renal): 27.3 µM
- TGI (U251 CNS): 29.7 µM
- TGI (UO-31 renal): 29.8 µM
- TGI (MALME-3M melanoma): 30.8 µM
- TGI (NCI-H226 lung): 35 µM
- TGI (HL-60(TB) leukemia): 26.5 µM
- TGI (HCC-2998 colon): 30.6 µM
- TGI (TK-10 renal): 34.6 µM
- TGI (UACC-257 melanoma): 30.6 µM
- TGI (OVCAR-3 ovarian): 27.9 µM
- TGI (SK-MEL-5 melanoma): 24.9 µM
- TGI (SK-MEL-2 melanoma): 30.4 µM
- TGI (786-0 renal): 31.9 µM
- TGI (SF-295 CNS): 30 µM
- TGI (SF-539 CNS): 42.4 µM
- TGI (SF-268 CNS): 39.6 µM
- TGI (HOP-62 NSCLC): 32.6 µM
- TGI (PC-3 prostate): 28.1 µM
- TGI (NCI-H522 lung): 26.3 µM
- TGI (MDA-N): 41.4 µM
- TGI (SW-620 colon): 31.9 µM
- TGI (HS 578T breast): 43.9 µM
- TGI (K-562 leukemia): 35.9 µM
- TGI (HOP-92 NSCLC): 28.5 µM
- TGI (A498 renal): 38.7 µM
- TGI (ACHN renal): 30.1 µM
- TGI (NCI-H460 lung): 31.9 µM
- TGI (MDA-MB-231 breast): 30.3 µM
- TGI (EKVX NSCLC): 38.6 µM
- TGI (COLO 205 colon): 32.1 µM
- TGI (MCF7 breast): 31.5 µM
- TGI (NCI/ADR-RES ovarian): 34.5 µM
- TGI (IGROV1 ovarian): 41 µM
- TGI (SK-OV-3 ovarian): 68.2 µM
- TGI (MOLT-4 leukemia): 32.4 µM
- TGI (OVCAR-5 ovarian): 32.5 µM
- TGI (T-47D breast): 29.6 µM
- TGI (A549 NSCLC): 34.8 µM
- TGI (OVCAR-8 ovarian): 33.3 µM
- TGI (OVCAR-4 ovarian): 28.6 µM
- TGI (HCT-15 colon): 33 µM
- TGI (MDA-MB-435): 32 µM
- TGI (SNB-19 CNS): 31.9 µM
- TGI (RXF 393 renal): 28 µM
- TGI (HT29 colon): 34.9 µM
- TGI (NCI-H23 lung): 52.4 µM
- TGI (LOX IMVI melanoma): 34.4 µM
- TGI (KM12 colon): 30.9 µM
- TGI (UACC-62 melanoma): 30.4 µM
- TGI (SNB-75 CNS): 30.9 µM
- TGI (M14 melanoma): 33 µM
- TGI (DU-145 prostate): 33.2 µM

Reference: PubChem BioAssay (NCI)
